From ChEMBL document CHEMBL3611992, “Synthesis and Structure-Activity Relationships of Quaternary Coptisine Derivatives as Potential Anti-ulcerative Colitis Agents” (J Med Chem, 2015)
Active and inactive are the calls of the source. The rule behind the calls is not given here.

Experiments:
[1] = Cytotoxicity against rat IEC-6 cells assessed as cell survival at 10 uM after 24 to 72 hrs by MTT assay; assay type: cell-based; settings: iec-6, 10 µM
[2] = target: T1, X-box-binding protein 1 (Homo sapiens) (UniProt P17861); test: Transactivation of XBP1 (unknown origin) transfected in rat IEC-6 cells at 10 uM after 48 hrs by dual luciferase reporter gene assay; assay type: cell-based
T1 sequence (whole entry): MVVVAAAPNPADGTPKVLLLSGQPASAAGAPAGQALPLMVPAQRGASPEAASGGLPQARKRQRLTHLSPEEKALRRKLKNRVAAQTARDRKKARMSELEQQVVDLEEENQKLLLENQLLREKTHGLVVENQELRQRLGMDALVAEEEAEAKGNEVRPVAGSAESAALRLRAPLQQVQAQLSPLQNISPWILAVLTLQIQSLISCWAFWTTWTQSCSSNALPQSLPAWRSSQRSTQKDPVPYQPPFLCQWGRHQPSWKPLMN

Mus musculus [3] = organism: Mus musculus; test: Anti-ulcerative colitis activity in DSS-induced acute C57Bl/6J mouse ulcerative colitis model; assay type: functional, organism-based
Mus musculus [4] = test: Toxicity in DSS-induced acute C57Bl/6J mouse ulcerative colitis model assessed as change in body weight at 50 mg/kg, po qd (reference value: -15.3%); assay type: organism-based; settings: in vivo
[5] = target: T1, X-box-binding protein 1 (Homo sapiens); test: Transactivation of XBP1 (unknown origin) transfected in rat IEC-6 cells at 10 uM after 48 hrs by dual luciferase reporter gene assay relative to con 2; assay type: cell-based
Mus musculus [6] = test: Anti-ulcerative colitis activity in DSS-induced acute C57Bl/6J mouse ulcerative colitis model assessed as inhibition rate of disease activity index at 50 mg/kg, po qd measured on day 8 relative to control; assay type: functional; settings: 192 h
Mus musculus [7] = test: Anti-ulcerative colitis activity in DSS-induced acute C57Bl/6J mouse ulcerative colitis model assessed as improvement in colon contracture at 200 mg/kg, po qd measured on day 8 (reference value: 41.8%); assay type: functional
Mus musculus [8] = test: Anti-ulcerative colitis activity in DSS-induced acute C57Bl/6J mouse ulcerative colitis model assessed as improvement in colon contracture at 50 mg/kg, po qd measured on day 8 (reference value: 41.8%); assay type: functional
Mus musculus [9] = test: Anti-ulcerative colitis activity in DSS-induced acute C57Bl/6J mouse ulcerative colitis model assessed as inhibition rate of disease activity index at 200 mg/kg, po qd measured on day 8 relative to control; assay type: functional; settings: 192 h
Mus musculus [10] = test: Anti-ulcerative colitis activity in po dosed DSS-induced acute C57Bl/6J mouse ulcerative colitis model assessed as inhibition rate of disease activity index administered as qd measured on day 8; assay type: functional, organism-based
Mus musculus [11] = test: Toxicity in DSS-induced acute C57Bl/6J mouse ulcerative colitis model assessed as change in body weight at 200 mg/kg, po qd (reference value: -15.3%); assay type: organism-based; settings: in vivo
Mus musculus [12] = test: Anti-ulcerative colitis activity in DSS-induced acute C57Bl/6J mouse ulcerative colitis model assessed as inhibition rate of disease activity index at 100 mg/kg, po qd measured on day 8 relative to control; assay type: functional; settings: 192 h
Mus musculus [13] = test: Anti-ulcerative colitis activity in DSS-induced acute C57Bl/6J mouse ulcerative colitis model assessed as improvement in colon contracture at 100 mg/kg, po qd measured on day 8 (reference value: 41.8%); assay type: functional
Mus musculus [14] = test: Toxicity in DSS-induced acute C57Bl/6J mouse ulcerative colitis model assessed as change in body weight at 100 mg/kg, po qd (reference value: -15.3%); assay type: organism-based; settings: in vivo
Mus musculus [15] = organism: Mus musculus; test: Toxicity in C57Bl/6J mouse; assay type: organism-based; settings: in vivo
Mus musculus [16] = test: Anti-ulcerative colitis activity in DSS-induced acute C57Bl/6J mouse ulcerative colitis model assessed as recovery of each muscle layer structure at 300 mg/kg, po qd measured on day 8; assay type: functional, organism-based
Mus musculus [17] = test: Anti-ulcerative colitis activity in DSS-induced acute C57Bl/6J mouse ulcerative colitis model assessed as improvement in number of visible colitis lesions at 300 mg/kg, po qd measured on day 8; assay type: functional, organism-based
Mus musculus [18] = test: Anti-ulcerative colitis activity in DSS-induced acute C57Bl/6J mouse ulcerative colitis model assessed as colon macroscopic damage index at 300 mg/kg, po qd measured on day 8 (reference value: 5.69 +/- 1.12); assay type: functional
Mus musculus [19] = test: Toxicity in DSS-induced acute C57Bl/6J mouse ulcerative colitis model assessed as change in body weight at 300 mg/kg, po qd (reference value: -15.3%); assay type: organism-based; settings: in vivo
Mus musculus [20] = test: Anti-ulcerative colitis activity in DSS-induced acute C57Bl/6J mouse ulcerative colitis model assessed as improvement in colon contracture at 300 mg/kg, po qd measured on day 8 (reference value: 41.8%); assay type: functional
Mus musculus [21] = test: Anti-ulcerative colitis activity in DSS-induced acute C57Bl/6J mouse ulcerative colitis model assessed as inhibition rate of disease activity index at 300 mg/kg, po qd measured on day 8 relative to control; assay type: functional; settings: 192 h
Mus musculus [22] = test: Anti-ulcerative colitis activity in DSS-induced acute C57Bl/6J mouse ulcerative colitis model assessed as restoration of polarity arrangement of IEC cells to its normal physiological state at 200 mg/kg, po qd measured on day 8; assay type: functional, organism-based
Mus musculus [23] = organism: Mus musculus; test: Potency index, ratio of compound activity to SASP activity for inhibition rate of disease activity index in DSS-induced acute C57Bl/6J mouse ulcerative colitis model; assay type: functional
Mus musculus [24] = test: Anti-ulcerative colitis activity in DSS-induced acute C57Bl/6J mouse ulcerative colitis model assessed as colon macroscopic damage index at 200 mg/kg, po qd measured on day 8 (reference value: 5.69 +/- 1.12); assay type: functional
Mus musculus [25] = test: Anti-ulcerative colitis activity in DSS-induced acute C57Bl/6J mouse ulcerative colitis model assessed as appearance of regularly arranged IEC cells at 200 mg/kg, po qd measured on day 8; assay type: functional, organism-based
Mus musculus [26] = test: Anti-ulcerative colitis activity in DSS-induced acute C57Bl/6J mouse ulcerative colitis model assessed as colon macroscopic damage index at 50 mg/kg, po qd measured on day 8 (reference value: 5.69 +/- 1.12); assay type: functional
Mus musculus [27] = test: Anti-ulcerative colitis activity in DSS-induced acute C57Bl/6J mouse ulcerative colitis model assessed as improvement in lesions of inflammatory bowel disease at 200 mg/kg, po qd measured on day 8; assay type: functional, organism-based
Mus musculus [28] = test: Anti-ulcerative colitis activity in DSS-induced acute C57Bl/6J mouse ulcerative colitis model assessed as decrease in inflammatory lesions in colon tissue at 50 to 100 mg/kg, po qd measured on day 8; assay type: functional, organism-based
Mus musculus [29] = test: Anti-ulcerative colitis activity in DSS-induced acute C57Bl/6J mouse ulcerative colitis model assessed as colon macroscopic damage index at 100 mg/kg, po qd measured on day 8 (reference value: 5.69 +/- 1.12); assay type: functional
Mus musculus [30] = test: Anti-ulcerative colitis activity in po dosed DSS-induced acute C57Bl/6J mouse ulcerative colitis model assessed as decrease in colon macroscopic damage index administered as qd measured on day 8; assay type: functional, organism-based

| Structure (SMILES) | Activity [2] | Activity (Mus musculus [3]) | also measured |
| --- | --- | --- | --- |
| Cc1ccc(Cc2c3[n+](cc4c5c(ccc24)OCO5)CCc2cc4c(cc2-3)OCO4)cc1.[Cl-] |  |  | Activity [1]: Toxic |
| C=C(C(=O)CCCC)c1c2c3c(ccc2c(C)c2[n+]1CCc1cc4c(cc1-2)OCO4)OCO3 | inactive |  |  |
| C=C(C(C)=O)c1c2c3c(ccc2c(C)c2[n+]1CCc1cc4c(cc1-2)OCO4)OCO3 |  | inactive |  |
| FC(F)(F)c1cccc(Cc2c3[n+](cc4c5c(ccc24)OCO5)CCc2cc4c(cc2-3)OCO4)c1.[Cl-] |  |  | Activity [1]: Toxic |
| C=C(C(=O)CC)c1c2c3c(ccc2c(C)c2[n+]1CCc1cc4c(cc1-2)OCO4)OCO3 |  | inactive |  |
| N#Cc1ccc(CC2=C3c4cc5c(cc4CCN3Cc3c2ccc2c3OCO2)OCO5)cc1 | Active |  |  |
| C=C(C(=O)C(C)(C)C)c1c2c3c(ccc2c(C)c2[n+]1CCc1cc4c(cc1-2)OCO4)OCO3 | inactive |  |  |
| Fc1cccc(CC2=C3c4cc5c(cc4CCN3Cc3c2ccc2c3OCO2)OCO5)c1 | Active |  |  |
| C1=CC2CC=CCN2CC1 (stereo not given) | Active |  |  |
| Fc1ccc(Cc2c3[n+](cc4c5c(ccc24)OCO5)CCc2cc4c(cc2-3)OCO4)cc1 | Active | inactive |  |
| c1cc2c(c3c1CC1c4cc5c(cc4CCN1C3)OCO5)OCO2 (stereo not given) |  | inactive |  |
| Fc1cccc(Cc2c3[n+](cc4c5c(ccc24)OCO5)CCc2cc4c(cc2-3)OCO4)c1 | Active | inactive |  |
| COc1ccc(CC2=C3c4cc5c(cc4CCN3Cc3c2ccc2c3OCO2)OCO5)cc1 | Active |  |  |
| N#CC1c2c(ccc3c2OCO3)C=C2c3cc4c(cc3CCN21)OCO4 (racemic) | Active |  | Activity (Mus musculus [15]): Toxic |
| FC(F)(F)c1cccc(CC2=C3c4cc5c(cc4CCN3Cc3c2ccc2c3OCO2)OCO5)c1 | Active |  |  |
| O=C(O)c1cc(/N=N/c2ccc(S(=O)(=O)Nc3ccccn3)cc2)ccc1O [SULFASALAZINE] |  |  | Activity (Mus musculus [16]): Active; Activity (Mus musculus [17]): Active; Activity_index (Mus musculus [18]): 3.98; Activity (Mus musculus [19]): -8.42%; Activity (Mus musculus [20]): 30%; inhibition in vivo at 300 mg/kg (Mus musculus [21]): 30.6% |
| C1=C2c3cc4c(cc3CCN2Cc2c1ccc1c2OCO1)OCO4 | Active |  | Activity (Mus musculus [22]): Active; Activity (Mus musculus [4]): -7%; Ratio (Mus musculus [23]): <=2; fold change (FC) [5]: 2.96; Activity_index (Mus musculus [24]): 2.16; inhibition in vivo at 50 mg/kg (Mus musculus [6]): 48%; Activity (Mus musculus [25]): Active; Activity (Mus musculus [7]): 18.7%; Activity (Mus musculus [8]): 24.6%; inhibition in vivo at 200 mg/kg (Mus musculus [9]): 74%; Activity_index (Mus musculus [26]): 3.52; Activity (Mus musculus [27]): Active; inhibition (Mus musculus [10]): Dose-dependent effect; Activity (Mus musculus [11]): 6.8%; Activity (Mus musculus [28]): inactive; inhibition in vivo at 100 mg/kg (Mus musculus [12]): 55.9%; Activity_index (Mus musculus [29]): 2.86; Activity (Mus musculus [30]): Dose-dependent effect; Activity (Mus musculus [13]): 20.8%; Activity (Mus musculus [14]): 0.4% |

Further lines, with some results ahead:

| Activity [2] | Structure (SMILES) | Activity (Mus musculus [3]) | also measured |
| --- | --- | --- | --- |
| inactive | C=C(C(=O)C1CC1)c1c2c3c(ccc2c(C)c2[n+]1CCc1cc4c(cc1-2)OCO4)OCO3 |  |  |
| Active | CC1=C2c3cc4c(cc3CCN2Cc2c1ccc1c2OCO1)OCO4 | inactive |  |
| Active | CC(=O)CC1c2c(ccc3c2OCO3)C=C2c3cc4c(cc3CCN21)OCO4 (racemic) |  | Activity (Mus musculus [4]): -12.9%; fold change (FC) [5]: 2.06; inhibition in vivo at 50 mg/kg (Mus musculus [6]): 36.4%; Activity (Mus musculus [7]): 20.4%; Activity (Mus musculus [8]): 38.3%; inhibition in vivo at 200 mg/kg (Mus musculus [9]): 63.8%; inhibition (Mus musculus [10]): Dose-dependent effect; Activity (Mus musculus [11]): 3.33%; inhibition in vivo at 100 mg/kg (Mus musculus [12]): 60.3%; Activity (Mus musculus [13]): 28.8%; Activity (Mus musculus [14]): 3.26% |
| inactive | C=C(C(=O)C(C)C)c1c2c3c(ccc2c(C)c2[n+]1CCc1cc4c(cc1-2)OCO4)OCO3 |  |  |
| Active | Fc1ccc(Cc2c3[n+](cc4c5c(ccc24)OCO5)CCc2cc4c(cc2-3)OCO4)c(F)c1 | inactive |  |
| Active | N#Cc1ccc(Cc2c3[n+](cc4c5c(ccc24)OCO5)CCc2cc4c(cc2-3)OCO4)cc1 | inactive |  |
| Active | Fc1ccc(CC2=C3c4cc5c(cc4CCN3Cc3c2ccc2c3OCO2)OCO5)cc1 |  |  |
| inactive | C=C(C(=O)c1ccc(OC)cc1)c1c2c3c(ccc2c(C)c2[n+]1CCc1cc4c(cc1-2)OCO4)OCO3 |  |  |
| Active | COc1ccc(Cc2c3[n+](cc4c5c(ccc24)OCO5)CCc2cc4c(cc2-3)OCO4)cc1 | inactive |  |
| inactive | C=C(C(=O)c1ccc(CC(C)C)cc1)c1c2c3c(ccc2c(C)c2[n+]1CCc1cc4c(cc1-2)OCO4)OCO3 |  |  |
| Active | O=c1c2c3c(ccc2cc2n1CCc1cc4c(cc1-2)OCO4)OCO3 | inactive |  |
| Active | Fc1ccccc1CC1=C2c3cc4c(cc3CCN2Cc2c1ccc1c2OCO1)OCO4 |  |  |
| Active | Fc1ccccc1Cc1c2[n+](cc3c4c(ccc13)OCO4)CCc1cc3c(cc1-2)OCO3 | inactive |  |
| inactive | C=C(C(=O)CCC)c1c2c3c(ccc2c(C)c2[n+]1CCc1cc4c(cc1-2)OCO4)OCO3 |  |  |
| Active | Cc1c2[n+](cc3c4c(ccc13)OCO4)CCc1cc3c(cc1-2)OCO3 | inactive |  |
| Active | Fc1ccc(CC2=C3c4cc5c(cc4CCN3Cc3c2ccc2c3OCO2)OCO5)c(F)c1 |  |  |
| Active | Cc1ccc(CC2=C3c4cc5c(cc4CCN3Cc3c2ccc2c3OCO2)OCO5)cc1 |  |  |
